Measurements: patent US20040214891A1, “Method for inhibiting pathogenic bacteria and fungi growth and microbicidal composition” (priority 2003, published 2004)

Experiments:
Propionibacterium acnes = experiment: microbicidal activity of TauBr solution, incubation with bacteria then colony count; assay type: cell-based; details: Cutibacterium acnes, 0.5 h, 30 minutes incubation at room temperature, range tested 1-1000 μM, read-out: inhibitory concentration (MIC)
Procedure: (§1) For research purposes, two bacterial strains commonly found on the human skin were chosen: Propionibacterium acnes (causing acne) and Staphylococcus epidermides (being a part of physiological flora of the skin). Selected microorganisms were lyophilized and kept at room temperature. To prepare strain cultures for immune research the lyophilisate was dissolved in 0.5 ml of 0.9% NaCl solution. The mixture was stirred and seeded on a growth medium. Incubation was conducted in anaerobic conditions at 37° C. for 48-72 hrs. A suspension of bacteria at a concentration of 5×10^9 CFU/ml was then prepared.
(§2) In order to assess the microbicidal activity of the TauBr solution, the Proponibacterium acnes and the Staphylococcus epidermides bacteria were incubated in closed tubes with TauBr solution. The range of concentrations tested was 1-1000 μM. The incubation was conducted at room temperature for 30 minutes. When this process was completed, bacteria were seeded onto a growth medium. After an appropriate period of time the number of developed colonies were counted. Next, estimation of the susceptibility of the Proponibacterium acnes and Staphylococcus epidermides bacteria to the agent tested [TauBr] was determined.

[1] = tested on: Staphylococcus epidermidis; experiment: as above; assay type: cell-based; details: 0.5 h, 30 minutes incubation at room temperature, range tested 1-1000 μM, read-out: inhibitory concentration (MIC)
Procedure: as §1, §2

bacteria tested = experiment: bactericidal activity of TauBr compared with TauCl at pH above 7; assay type: cell-based
bacteria on the skin [2] = experiment: imprinting method with Rodac plates on dorsal skin of volunteers, solutions on gauze pads; assay type: in vivo, human; details: 30 minutes
From the text: In order to conduct further tests to ascertain the antibacterial activity of the formulation containing taurine bromamine and prepared by the method described above, the imprinting method was chosen with use of Rodac plates with an area of 25 cm^2. For the purposes of study a Scheadler Agar Base medium produced by the firm Dico, catalogue number 212189, was used with addition of 5% ram blood. The medium was poured steadily onto the Rodac plates in aseptic conditions until a convex meniscus appeared. Before being applied, the medium was kept in enclosed conditions within a fridge at a temperature of ca. +4° C. and was used in a time not exceeding 7 days from the date of its preparation.
Tests for the antibacterial activity of taurine bromamine were conducted by performing 5 imprints of the dorsal skin on time at each of the patients examined. The skin area, on which the tests were to be performed, was determined in advance and marked with the numbers 1-5. […]
At the site marked 1—a gauze pad saturated with 0.9% inj. solution of NaCl (Polfa Lublin), which was a control substance without antibacterial activity was applied to the skin. […] Wherever possible, all the cultivated colonies of relatively aerobic and anaerobic bacteria were counted, to provide a figure for the concentration per cm^2 of the skin. […]

bacteria on the skin [3] = experiment: imprinting method on skin of volunteers, gel, cream and powder preparations; assay type: in vivo, human; details: above 5 mM taurine bromamine; for example Staphylococcus epidermides
Procedure: Further studies of the antibacterial activity of taurine bromamine were conducted using a gel, a cream and a powder. In these tests, applications with a semisolid consistency and plastic features were made, called hereinafter, pharmaceutical or cosmetic preparations or compositions, particularly a taurine bromamine solution in an ethyl-cellulose gel with pH 5-pH 7, a cetomacrogol cream with pH 5-pH 7 and a powder suspension in a taurine bromamine solution.
The powder suspension in taurine bromamine solution was prepared on a base of liquid powder changing the proportions of the components by weight. The suspension consisted of, by weight: 14.0-60.0% of 10 mM Taurine bromamine solution, 10.0-24.0% of talc, 14.0-40.0% of glycerol, 5.0-30.0% of distilled water and 0.5-2.0% of menthol. The constituents of the suspension were stirred thoroughly until an homogenous dispersion of the solid phase was obtained. […]
The preparations were left on the skin area for 30 minutes and then the plates were pressed down so that the site exposed to the activity of the various substances was imprinted centrally on the plate. […] Wherever it was possible, all cultivated colonies of relatively aerobic bacteria and anaerobic bacteria were counted, giving their occurrence per 1 cm^2 of the skin. […]

| Compound | MIC (Propionibacterium acnes) [µM] | MIC [1] [µM] | selective bactericidal properties (variable susceptibility of strains) (bacteria tested) | bactericidal activity relative to TauCl (bacteria tested; especially at pH above 7) | bacteria destroyed (bacteria tested; pH above 7) [%] | bacterial concentration on skin after treatment (bacteria on the skin [2]; 5 mM solution in buffer pH 7, decrease from uncountable level of ca 10^4 CFU/cm^2) | number of bacteria on the skin area (bacteria on the skin [2]; 4-7 mM solution in buffer pH 5-pH 7, all patients) | effect on bacterial flora of normal skin (bacteria on the skin [3]) | bactericidal properties (bacteria tested; pH above 7, subcytotoxic concentrations for mammalian cells) |
| --- | --- | --- | --- | --- | --- | --- | --- | --- | --- |
| O=S(=O)(O)CCNBr [TauBr, N-bromo taurine] | < 32 | > 125 | Variable susceptibility of the strains | much stronger than TauCl | 99 | 10^1-10^2 CFU/cm^2 | considerable diminution | all the bacterial flora is destroyed |  |
| O=S(=O)(O)CCNCl [TauCl, N-chloro taurine, reference compound] |  |  | no such selective bactericidal properties |  |  |  |  |  | no bactericidal properties |
